The text below walks through data of patent US20260216348A1, “IRAK DEGRADATION AGENT AND USE THEREOF” (Increland, priority 2023, published 2026).

The structures appear in SMILES notation. Where two headings read alike, the source gives them in different places.

Series [1] can be described thus: Pharmacokinetic experiment on SD rats (iv and intragastric). Type of series: in vivo. The note with it: Sprague-Dawley, rat, plasma; for Cmax: read-out: Peak plasma concentration Cmax. The procedure:
Pharmacokinetic experiment on SD rats: in this experiment, two administration modes: oral intragastric administration and tail vein injection were selected. Oral administration was performed at a dose of 5 mg/kg using the compounds of the present disclosure. The administration volume was 10 mL/kg. Prior to use, an appropriate amount of the drug was accurately weighed and first dissolved in dimethyl sulfoxide (DMSO). An appropriate amount of Solutol and H2O were then added in sequence at a final volume ratio of 5% DMSO, 10% Solutol and 85% H2O. The mixture was sonicated and vortexed to homogeneity to prepare a clear drug solution with a concentration of 0.5 mg/mL. Intravenous administration was performed at a dose of 1 mg/kg using the compounds of the present disclosure. The administration volume was 10 mL/kg. Prior to use, an appropriate amount of each drug was accurately weighed separately, followed by the sequential addition of a suitable volume of PEG 400 and Saline at a final volume ratio of 20% PEG 400 to 80% Saline. The mixture was sonicated and vortexed to homogeneity to prepare a clear drug solution with a concentration of 0.1 mg/mL.
6 SD rats, each with body weight of 180-220 g, were randomly grouped into 2 groups. The animals were fasted overnight with free access to water. For the first group, intragastric administration was performed, and 200 μL of blood was collected from the orbital venous plexus into anticoagulant tubes at 15 min, 30 min, 1 h, 2 h, 4 h, 6 h, 8 h and 24 h post-administration, respectively. Within one hour, the blood samples were centrifuged at 10000 rpm for 20 m at 4° C. (preserved on an ice box prior to centrifugation). The upper supernatant, i.e., plasma, was harvested and stored in a refrigerator at −20° C. for subsequent LC-MS/MS analysis. For the second group, intravenous administration was conducted, and 200 μL of blood was collected from the orbital venous plexus into anticoagulant tubes at 5 min, 15 min, 30 min, 1 h, 2 h, 4 h, 8 h and 24 h post-administration, respectively. Within one hour, the blood samples were centrifuged at 10000 rpm for 20 min at […] (preserved on an ice box prior to centrifugation). The upper supernatant, i.e., plasma, was harvested and stored in a refrigerator at −20° C. for subsequent LC-MS/MS analysis.

Series [2] can be described thus: Metabolic stability in human liver microsome. The following applies: liver microsomes, NADPH, 60 min, read-out: Human liver microsome (t1/2, min). Type of series: in vitro ADME. The procedure: Clean incubation plates T60 and NCF60 were preheated at 37° C. for 10 min. Liver microsomes were diluted to a concentration of 0.56 mg/mL with 100 mM phosphate buffer, and 445 μL of the microsome working solution (0.56 mg/mL) was transferred to the preheated incubation plates T60 and NCF60, followed by incubation of the plates T60 and NCF60 with continuous shaking at 37° C. for 10 min. After incubation, 54 μL of liver microsomes were transferred to a blank plate, 6 μL of NAPDH cofactor was added to the blank plate, and then 180 μL of quenching solution was added to the blank plate. 5 μL of the compound working solution (100 μM) was added to the microsome-containing incubation plates T60 and NCF60, and mixed thoroughly 3 times. For plate NCF60, 50 μL of buffer was added and the system was mixed thoroughly 3 times before timing was started, and the plate was incubated with shaking at 37° C. for 60 min. For the quenching plate, 180 μL of quenching solution and 6 μL of NADPH cofactor were added, and the plate was ensured to be cooled to prevent evaporation. For the T60 plate, the mixture was thoroughly mixed 3 times, and 54 μL of the mixture was immediately transferred to the quenching plate at the time point of 0 min. Then 44 μL of the NAPDH cofactor was added to the incubation plate (T60). Timing was started, and the plate was incubated with shaking at 37° C. for 60 min. At the time points of 5, 15, 30, 45, and 60 min, 180 μL of the quenching solution was added to the quenching plate respectively, mixed once, and 60 μL of sample was continuously transferred from the plate T60 to the quenching plate at each time point. For plate NCF60, after mixing once, 60 μL of the sample was transferred from incubation plate NCF60 to the quenching plate containing quenching solution at the 60-min time point. All sampling plates were shaken for 10 min, then centrifuged at 4000 rpm at 4° C. for 20 min. 80 μL of the supernatant was transferred to 240 μL of HPLC water, and mixed using a plate shaker for 10 min. Each bioanalytical plate was sealed and shaken for 10 min before LC-MS/MS analysis.

Series [3] has as its system DSS-induced enteritis model. Briefly: DSS-induced enteritis (colitis) model. Type of series: in vivo, mice. The note with it: po, QD, Model 10.33 ± 1.11, Mean ± SD, n = 7. The source says:
The experimental mice were pre-acclimatized in the animal facility for one week; at the beginning of the experiment, the mice were given medication intragastrically daily according to their body weight. After the completion of intragastric administration in each group, mice had direct access to water bottles for free drinking. The blank group received normal water, while the other groups received pre-prepared DSS water. Each afternoon, the mice's abdomens were massaged to stimulate defecation, and one fecal pellet was collected onto a white porcelain plate. Fecal consistency was judged and recorded according to Table 30. The fecal occult blood qualitative test kit (Yuanye Biotechnology, #R24187-300T) was used to test for occult blood in feces and the results were interpreted according to Table 31.

For `CN(C)c1cc2nn([C@H]3CC[C@H](CN4C[C@@H](F)[C@H](n5cc6cc(C7CCC(=O)NC7=O)ccc6n5)C4)CC3)cc2cc1NC(=O)c1cnn2cccnc12` (stereo partly shown) [TM-244], in series [1] (iv, 1.00 mg/kg), the area under the curve (AUC) amounted to 2010 ± 361 ng·h/mL, the AUC(0-inf) is 2440 ± 585 ng·h/mL and the Cmax stood at 784 ± 126 ng/mL. Moreover, the half-life at 1 µM in series [2] was 79.5 min.

Turning to `CN(C)c1cc2nn([C@H]3CC[C@H](CN4C[C@@H](n5cc6cc(C7CCC(=O)NC7=O)c(F)cc6n5)[C@@H](F)C4)CC3)cc2cc1NC(=O)c1cnn2cccnc12` (stereo partly shown) [TM-241], in series [1] (iv, 1.00 mg/kg), the AUC was found to be 4140 ± 1290 ng·h/mL, the area under the curve AUC(0-inf) is 4220 ± 1300 ng·h/mL and the Cmax was 920 ± 124 ng/mL. Further, the half-life at 1 µM in series [2] was determined as 106 min.

For `CN(C)c1cc2nn([C@H]3CC[C@H](CN4C[C@@H](F)[C@H](n5cc6cc(C7CCC(=O)NC7=O)c(F)cc6n5)C4)CC3)cc2cc1NC(=O)c1cnn2cccnc12` (stereo partly shown) [TM-245], in series [1] (iv, 1.00 mg/kg), the exposure (AUC) stood at 2910 ± 62.8 ng·h/mL, the AUC(0-inf) was 2980 ± 114 ng·h/mL and the Cmax was determined as 554 ± 60.7 ng/mL. Also, in series [2], the half-life at 1 µM is 87.4 min.

On to `CN(C)c1cc2nn([C@H]3CC[C@H](CN4C[C@@H](F)[C@@H](n5cc6cc(C7CCC(=O)NC7=O)c(F)cc6n5)C4)CC3)cc2cc1NC(=O)c1cnn2cccnc12` (stereo partly shown) [TM-240], for which, in series [1] (iv, 1.00 mg/kg), the exposure (AUC) came to 2630 ± 172 ng·h/mL, the AUC(0-inf) is 2670 ± 175 ng·h/mL and the Cmax came out at 652 ± 32 ng/mL. The half-life at 1 µM in series [2] worked out at 98.6 min.

On to `CN(C)c1cc2nn([C@H]3CC[C@H](CN4CC[C@@H](n5cc6cc(C7CCC(=O)NC7=O)c(F)cc6n5)[C@@H](F)C4)CC3)cc2cc1NC(=O)c1cnn2cccnc12` (stereo partly shown) [TM-135], for which, in series [1] (iv, 1.00 mg/kg), the AUC was 1170 ± 260 ng·h/mL, the AUC(0-inf) is 1220 ± 333 ng·h/mL and the Cmax was 790 ± 65.9 ng/mL. In series [1] (po, ig 5.00 mg/kg vs iv 1.00 mg/kg, read-out: Oral bioavailability Fobs), the bioavailability worked out at 33.2%. Also, in series [1] (po, ig, 5.00 mg/kg), the AUC amounted to 1900 ± 565 ng·h/mL, the AUC(0-inf) amounted to 2030 ± 529 ng·h/mL and the Cmax was determined as 433 ± 198 ng/mL. Also, the half-life at 1 µM in series [2] was determined as 65 min.

Regarding `CN(C)c1cc2nn([C@H]3CC[C@H](CN4C[C@H](F)[C@@H](n5cc6cc(C7CCC(=O)NC7=O)c(F)cc6n5)C4)CC3)cc2cc1NC(=O)c1cnn2cccnc12` (stereo partly shown) [TM-249], in series [1] (iv, 1.00 mg/kg), the AUC came to 2280 ± 190 ng·h/mL, the AUC(0-inf) turned out to be 2400 ± 354 ng·h/mL and the Cmax is 613 ± 39.8 ng/mL. For the same compound, the half-life at 1 µM in series [2] came out at 139 min.

Take `CN(C)c1cc2nn([C@H]3CC[C@H](CN4C[C@@H](n5cc6cc(N7CCC(=O)NC7=O)ccc6n5)[C@@H](F)C4)CC3)cc2cc1NC(=O)c1cnn2cccnc12` [TM-205]: the “DAI Score d 8” value in series [3] (3 mpk) is 4.86 ± 1.55; in series [3] (10 mpk), 3.29 ± 1.67; in series [3] (30 mpk), 2.71 ± 0.70.

In the case of `CN(C)c1cc2nn([C@H]3CC[C@H](CN4CCC(n5cc6c(F)cc(N7CCC(=O)NC7=O)cc6n5)CC4)CC3)cc2cc1NC(=O)c1cnn2cccnc12` [TM-174], in series [1] (iv, 1.00 mg/kg), the AUC was found to be 1480 ± 167 ng·h/mL, the AUC(0-inf) worked out at 1700 ± 254 ng·h/mL and the Cmax amounted to 272 ± 34.5 ng/mL. Further, in series [3] (3 mpk), the “DAI Score d 8” value was found to be 3.57 ± 2.26. For the same compound, the “DAI Score d 8” value in series [3] (10 mpk) is recorded as 2.71 ± 1.39. The “DAI Score d 8” value in series [3] (30 mpk) was determined as 2.71 ± 0.70.
